How the values were obtained:
[1] = molecular target: YAP–TEAD4-YBD interaction (Homo sapiens, UniProt Q15561); assay: Primary FP screening assay, 1536-well; type: binding; details: read-out: IC50 in the primary FP screening assay
[2] = tested on: Gal4-TEAD4 fusion protein with YAP; assay: Gal4-TEAD4 / YAP UAS-LUC reporter assay in HEK293T cells; type: cell-based; details: 20 μM, 24 hours
YAP:TEAD1 complex = YAP:TEAD1 complex (Homo sapiens, UniProt P28347); assay: Anti-FLAG co-immunoprecipitation of HA-YAP in HEK293T cells; type: cell-based; details: 10 μM, 24 hours
Sequence of YAP:TEAD1 complex (P28347 whole entry, one chain of several): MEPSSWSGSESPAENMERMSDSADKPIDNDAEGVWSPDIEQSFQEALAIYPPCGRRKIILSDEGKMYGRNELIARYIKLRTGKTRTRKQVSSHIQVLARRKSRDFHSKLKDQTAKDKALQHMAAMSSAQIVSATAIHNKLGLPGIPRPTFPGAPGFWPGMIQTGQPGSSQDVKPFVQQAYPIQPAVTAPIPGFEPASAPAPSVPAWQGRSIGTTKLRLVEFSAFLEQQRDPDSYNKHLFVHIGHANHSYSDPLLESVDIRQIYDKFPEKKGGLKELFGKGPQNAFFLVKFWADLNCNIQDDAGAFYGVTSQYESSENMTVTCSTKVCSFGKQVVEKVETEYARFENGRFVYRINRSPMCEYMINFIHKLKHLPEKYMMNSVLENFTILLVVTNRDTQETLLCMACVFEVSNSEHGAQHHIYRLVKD
YAP:TEAD2 complex = YAP:TEAD2 complex (Homo sapiens, UniProt Q15562); assay: as above; type: cell-based; details: 10 μM, 24 hours
Sequence of YAP:TEAD2 complex (Q15562 whole entry, one chain of several): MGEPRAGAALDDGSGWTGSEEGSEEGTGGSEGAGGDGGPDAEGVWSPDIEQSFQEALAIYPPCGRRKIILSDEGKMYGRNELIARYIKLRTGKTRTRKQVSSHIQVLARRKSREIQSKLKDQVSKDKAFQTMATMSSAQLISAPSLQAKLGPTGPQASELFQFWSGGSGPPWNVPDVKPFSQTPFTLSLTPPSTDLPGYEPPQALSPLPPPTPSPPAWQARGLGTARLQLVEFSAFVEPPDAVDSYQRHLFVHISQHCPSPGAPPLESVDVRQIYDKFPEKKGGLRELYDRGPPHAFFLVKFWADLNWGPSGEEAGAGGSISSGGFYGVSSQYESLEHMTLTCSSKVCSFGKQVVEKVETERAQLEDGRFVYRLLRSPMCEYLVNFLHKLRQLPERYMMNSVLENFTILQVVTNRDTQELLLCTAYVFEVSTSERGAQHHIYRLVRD
YAP:TEAD4 complex = YAP:TEAD4 complex (Homo sapiens, UniProt Q15561); assay: as above; type: cell-based; details: 10 μM, 24 hours
Sequence of YAP:TEAD4 complex (Q15561 whole entry, one chain of several): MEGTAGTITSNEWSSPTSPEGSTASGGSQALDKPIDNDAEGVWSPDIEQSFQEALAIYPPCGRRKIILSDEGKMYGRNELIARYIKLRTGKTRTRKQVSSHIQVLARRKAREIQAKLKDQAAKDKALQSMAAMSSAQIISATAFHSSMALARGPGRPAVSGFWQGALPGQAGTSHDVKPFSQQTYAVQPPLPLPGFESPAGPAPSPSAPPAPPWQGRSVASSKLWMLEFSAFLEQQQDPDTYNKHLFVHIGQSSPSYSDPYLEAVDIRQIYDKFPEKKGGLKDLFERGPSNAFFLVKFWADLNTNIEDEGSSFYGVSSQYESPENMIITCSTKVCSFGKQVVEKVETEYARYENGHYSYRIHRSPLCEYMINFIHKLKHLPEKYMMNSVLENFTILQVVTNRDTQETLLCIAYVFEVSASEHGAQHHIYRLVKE

Sequence of YAP–TEAD4-YBD interaction (Q15561 216-434): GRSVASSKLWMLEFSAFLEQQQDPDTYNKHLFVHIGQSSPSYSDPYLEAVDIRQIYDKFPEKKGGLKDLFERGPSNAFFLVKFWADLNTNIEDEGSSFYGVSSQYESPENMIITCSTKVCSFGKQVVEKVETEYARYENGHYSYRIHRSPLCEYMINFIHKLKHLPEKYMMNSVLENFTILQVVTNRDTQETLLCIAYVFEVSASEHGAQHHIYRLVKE

Compound	IC50 [1]	decrease in YAP-driven luciferase signal [2]	inhibition of HA-YAP association with FLAG-TEAD1 (YAP:TEAD1 complex)	inhibition of HA-YAP association with FLAG-TEAD2 (YAP:TEAD2 complex)	inhibition of HA-YAP association with FLAG-TEAD4 (YAP:TEAD4 complex)
Verteporfin [VTP]	0.544 µM	88%	–	–	–
C=CC(=O)N1C[C@@H](n2cc(-c3cccnc3)nn2)[C@H](OCc2ccc(C(F)(F)F)cc2)C1 [MYF-03-69]	–	–	robustly inhibited the association with TEAD1 transgene	lesser inhibitory effect	strongly inhibited
